Results reported in ChEMBL document CHEMBL1671617, “Correlation of antimicrobial resistance with beta-lactamases, the OmpA-like porin, and efflux pumps in clinical isolates of Acinetobacter baumannii endemic to New York City” (2008).
Converted amounts (≈) assume the structure as drawn.

Assays:
Format in all cases: functional
Acinetobacter baumannii [1] = assay: Antimicrobial activity against ISAba1 linked with the blaOXA-51-type beta-lactamase harboring Acinetobacter baumannii zeta clonal group isolate 20 expressing ampC, ompA, adeB, adeM, aacC2 by Etest method
Acinetobacter baumannii [2] = assay: Antimicrobial activity against ISAba1 linked with the blaOXA-51-type beta-lactamase harboring Acinetobacter baumannii lambda clonal group isolate 30 expressing ampC, ompA, adeB, adeM, aadB, aadA1 by Etest method
Acinetobacter baumannii [3] = assay: Antimicrobial activity against Acinetobacter baumannii eta clonal group isolate 36 expressing ampC, ompA, adeB, adeM by Etest method
Acinetobacter baumannii [4] = assay: Antimicrobial activity against ISAba1 linked with the blaOXA-51-type beta-lactamase harboring Acinetobacter baumannii beta clonal group isolate 17 expressing ompA, adeB, adeM, aacA4, blaSHV-5 by Etest method
Acinetobacter baumannii [5] = assay: Antimicrobial activity against Acinetobacter baumannii unique clonal group isolate 39 expressing ampC, ompA, adeM by Etest method
Acinetobacter baumannii [6] = assay: Antimicrobial activity against ISAba1 linked with the blaOXA-51-type beta-lactamase harboring Acinetobacter baumannii beta clonal group isolate 9 expressing ampC, ompA, adeB, adeM by Etest method
Acinetobacter baumannii [7] = assay: Antimicrobial activity against ISAba1 linked with the blaOXA-51-type beta-lactamase harboring Acinetobacter baumannii alpha clonal group isolate 8 expressing ampC, ompA, adeB, adeM, aacC1, aadA1 by Etest method
Acinetobacter baumannii [8] = assay: Antimicrobial activity against Acinetobacter baumannii nu clonal group isolate 33 expressing ampC, ompA, adeB, adeM by Etest method
Acinetobacter baumannii [9] = assay: Antimicrobial activity against Acinetobacter baumannii unique clonal group isolate 38 expressing ampC, ompA, adeB, adeM by Etest method
Acinetobacter baumannii [10] = assay: Antimicrobial activity against ISAba1 linked with the blaOXA-51-type beta-lactamase harboring Acinetobacter baumannii zeta clonal group isolate 23 expressing ampC, ompA, adeB, adeM, aadA1, aacA4, aacC2, aphA6 by Etest method
Acinetobacter baumannii [11] = assay: Antimicrobial activity against ISAba1 linked with the blaOXA-51-type beta-lactamase harboring Acinetobacter baumannii alpha clonal group isolate 7 expressing ampC, ompA, adeB, adeM, blaSHV-5 by Etest method
Acinetobacter baumannii [12] = assay: Antimicrobial activity against ISAba1 linked with the blaOXA-51-type beta-lactamase harboring Acinetobacter baumannii alpha clonal group isolate 6 expressing ampC, ompA, adeB, adeM, aacC1, aadA1 by Etest method
Acinetobacter baumannii [13] = assay: Antimicrobial activity against ISAba1 linked with the blaOXA-51-type beta-lactamase harboring Acinetobacter baumannii zeta clonal group isolate 19 expressing ampC, ompA, adeB, adeM, aacC2 by Etest method
Acinetobacter baumannii [14] = assay: Antimicrobial activity against ISAba1 linked with the blaOXA-51-type beta-lactamase harboring Acinetobacter baumannii beta clonal group isolate 13 expressing ompA, adeB, adeM, aacA4, blaSHV-5 by Etest method
Acinetobacter baumannii [15] = assay: Antimicrobial activity against ISAba1 linked with the blaOXA-51-type beta-lactamase harboring Acinetobacter baumannii beta clonal group isolate 16 expressing ompA, adeB, adeM, aacA4, blaSHV-5 by Etest method
Acinetobacter baumannii [16] = assay: Antimicrobial activity against ISAba1 linked with the blaOXA-51-type beta-lactamase harboring Acinetobacter baumannii zeta clonal group isolate 22 expressing ampC, ompA, adeB, adeM, aadA1, aacA4, aacC2, blaSHV-5 by Etest method
Acinetobacter baumannii [17] = assay: Antimicrobial activity against ISAba1 linked with the blaOXA-51-type beta-lactamase harboring Acinetobacter baumannii alpha clonal group isolate 1 expressing ampC, ompA, adeB, adeM by Etest method
Acinetobacter baumannii [18] = assay: Antimicrobial activity against ISAba1 linked with the blaOXA-51-type beta-lactamase harboring Acinetobacter baumannii lambda clonal group isolate 29 expressing ampC, ompA, adeM, aadB, aadA1 by Etest method
Acinetobacter baumannii [19] = assay: Antimicrobial activity against ISAba1 linked with the blaOXA-51-type beta-lactamase harboring Acinetobacter baumannii zeta clonal group isolate 21 expressing ampC, ompA, adeB, adeM, aacC2, blaSHV-5 by Etest method
Acinetobacter baumannii [20] = assay: Antimicrobial activity against Acinetobacter baumannii alpha clonal group isolate 4 expressing ampC, ompA, adeB, adeM, aacC1, aadA1 by Etest method
Acinetobacter baumannii [21] = assay: Antimicrobial activity against Acinetobacter baumannii unique clonal group isolate 37 expressing ampC, ompA, adeB, adeM by Etest method
Acinetobacter baumannii [22] = assay: Antimicrobial activity against ISAba1 linked with the blaOXA-51-type beta-lactamase harboring Acinetobacter baumannii beta clonal group isolate 18 expressing ompA, adeB, adeM, aacA4, blaSHV-5 by Etest method
Acinetobacter baumannii [23] = assay: Antimicrobial activity against Acinetobacter baumannii alpha clonal group isolate 2 expressing ampC, ompA, adeB, adeM, aacC1, aadA1 by Etest method
Acinetobacter baumannii [24] = assay: Antimicrobial activity against ISAba1 linked with the blaOXA-51-type beta-lactamase harboring Acinetobacter baumannii lambda clonal group isolate 28 expressing ampC, ompA, adeM, aadB, aadA1 by Etest method
Acinetobacter baumannii [25] = assay: Antimicrobial activity against Acinetobacter baumannii eta clonal group isolate 35 expressing ampC, ompA, adeB, adeM by Etest method
Acinetobacter baumannii [26] = assay: Antimicrobial activity against Acinetobacter baumannii nu clonal group isolate 32 expressing ampC, ompA, adeB, adeM, aadB, aadA2 by Etest method
Acinetobacter baumannii [27] = assay: Antimicrobial activity against Acinetobacter baumannii lambda clonal group isolate 27 expressing ampC, ompA, adeB, adeM, aadB, aadA1 by Etest method
Acinetobacter baumannii [28] = assay: Antimicrobial activity against ISAba1 linked with the blaOXA-51-type beta-lactamase harboring Acinetobacter baumannii beta clonal group isolate 15 expressing ompA, adeB, adeM, aacA4, blaSHV-5 by Etest method
Acinetobacter baumannii [29] = assay: Antimicrobial activity against Acinetobacter baumannii alpha clonal group isolate 3 expressing ampC, ompA, adeB, adeM, aacC1, aadA1 by Etest method
Acinetobacter baumannii [30] = assay: Antimicrobial activity against ISAba1 linked with the blaOXA-51-type beta-lactamase harboring Acinetobacter baumannii beta clonal group isolate 10 expressing ompA, adeB, adeM, aacA4, blaSHV-5 by Etest method
Acinetobacter baumannii [31] = assay: Antimicrobial activity against Acinetobacter baumannii alpha clonal group isolate 5 expressing ampC, ompA, adeB, adeM, aacC1, aadA1 by Etest method
Acinetobacter baumannii [32] = assay: Antimicrobial activity against ISAba1 linked with the blaOXA-51-type beta-lactamase harboring Acinetobacter baumannii zeta clonal group isolate 24 expressing ampC, ompA, adeB, adeM, aadA1, aacA4, aacC2, blaSHV-5 by Etest method
Acinetobacter baumannii [33] = assay: Antimicrobial activity against ISAba1 linked with the blaOXA-51-type beta-lactamase harboring Acinetobacter baumannii zeta clonal group isolate 25 expressing ampC, ompA, adeB, adeM, aadA1, aacA4, aacC2, blaSHV-5 by Etest method
Acinetobacter baumannii [34] = assay: Antimicrobial activity against ISAba1 linked with the blaOXA-51-type beta-lactamase harboring Acinetobacter baumannii beta clonal group isolate 14 expressing ompA, adeB, adeM, aacA4, blaSHV-5 by Etest method
Acinetobacter baumannii [35] = assay: Antimicrobial activity against ISAba1 linked with the blaOXA-51-type beta-lactamase harboring Acinetobacter baumannii beta clonal group isolate 11 expressing ompA, adeB, adeM, blaSHV-5 by Etest method
Acinetobacter baumannii [36] = assay: Antimicrobial activity against ISAba1 linked with the blaOXA-51-type beta-lactamase harboring Acinetobacter baumannii unique clonal group isolate 40 expressing ampC, ompA, adeB, adeM, aadA1, aacA4, aacC2, blaSHV-5 by Etest method
Acinetobacter baumannii [37] = assay: Antimicrobial activity against ISAba1 linked with the blaOXA-51-type beta-lactamase harboring Acinetobacter baumannii beta clonal group isolate 12 expressing ompA, adeB, adeM, aacA4, aacC2, blaSHV-5 by Etest method
Acinetobacter baumannii [38] = assay: Antimicrobial activity against ISAba1 linked with the blaOXA-51-type beta-lactamase harboring Acinetobacter baumannii zeta clonal group isolate 26 expressing ampC, ompA, adeB, adeM, aadA1, aacA4, aacC2, blaSHV-5 by Etest method
Acinetobacter baumannii [39] = assay: Antimicrobial activity against Acinetobacter baumannii nu clonal group isolate 34 expressing ampC, ompA, adeB, adeM by Etest method
Acinetobacter baumannii [40] = assay: Antimicrobial activity against Acinetobacter baumannii nu clonal group isolate 31 expressing ampC, ompA, adeB, adeM, aadB, aadA2 by Etest method

Row | SMILES | MIC (Acinetobacter baumannii [1]) [µg/mL] | MIC (Acinetobacter baumannii [2]) [µg/mL] | MIC (Acinetobacter baumannii [3]) [µg/mL] | MIC (Acinetobacter baumannii [4]) [µg/mL] | MIC (Acinetobacter baumannii [5]) [µg/mL] | MIC (Acinetobacter baumannii [6]) [µg/mL] | MIC (Acinetobacter baumannii [7]) [µg/mL] | MIC (Acinetobacter baumannii [8]) [µg/mL] | MIC (Acinetobacter baumannii [9]) [µg/mL] | MIC (Acinetobacter baumannii [10]) [µg/mL] | MIC (Acinetobacter baumannii [11]) [µg/mL] | MIC (Acinetobacter baumannii [12]) [µg/mL] | MIC (Acinetobacter baumannii [13]) [µg/mL] | MIC (Acinetobacter baumannii [14]) [µg/mL] | MIC (Acinetobacter baumannii [15]) [µg/mL] | MIC (Acinetobacter baumannii [16]) [µg/mL] | MIC (Acinetobacter baumannii [17]) [µg/mL] | MIC (Acinetobacter baumannii [18]) [µg/mL] | MIC (Acinetobacter baumannii [19]) [µg/mL] | MIC (Acinetobacter baumannii [20]) [µg/mL] | further results
1 | NCC[C@H](O)C(=O)N[C@@H]1C[C@H](N)[C@@H](O[C@H]2O[C@H](CN)[C@@H](O)[C@H](O)[C@H]2O)[C@H](O)[C@H]1O[C@H]1O[C@H](CO)[C@@H](O)[C@H](N)[C@H]1O [AMIKACIN] | 3 (≈ 5.12 µM) | 48 (≈ 82 µM) | 3 (≈ 5.12 µM) | 8 (≈ 13.7 µM) | 1.5 (≈ 2.56 µM) | 4 (≈ 6.83 µM) | 4 (≈ 6.83 µM) | 3 (≈ 5.12 µM) | 1.5 (≈ 2.56 µM) | 24 (≈ 41 µM) | 2 (≈ 3.42 µM) | 1.5 (≈ 2.56 µM) | 3 (≈ 5.12 µM) | 8 (≈ 13.7 µM) | 8 (≈ 13.7 µM) | 48 (≈ 82 µM) | 1.5 (≈ 2.56 µM) | 3 (≈ 5.12 µM) | 3 (≈ 5.12 µM) | 2 (≈ 3.42 µM) | MIC (Acinetobacter baumannii [21]): 6 µg/mL (≈ 10.2 µM); MIC (Acinetobacter baumannii [22]): 24 µg/mL (≈ 41 µM); MIC (Acinetobacter baumannii [23]): 2 µg/mL (≈ 3.42 µM); MIC (Acinetobacter baumannii [24]): 3 µg/mL (≈ 5.12 µM); MIC (Acinetobacter baumannii [25]): 3 µg/mL (≈ 5.12 µM); MIC (Acinetobacter baumannii [26]): 4 µg/mL (≈ 6.83 µM); MIC (Acinetobacter baumannii [27]): < 0.5 µg/mL; MIC (Acinetobacter baumannii [28]): 8 µg/mL (≈ 13.7 µM); MIC (Acinetobacter baumannii [29]): 2 µg/mL (≈ 3.42 µM); MIC (Acinetobacter baumannii [30]): 6 µg/mL (≈ 10.2 µM); MIC (Acinetobacter baumannii [31]): 2 µg/mL (≈ 3.42 µM); MIC (Acinetobacter baumannii [32]): 32 µg/mL (≈ 54.6 µM); MIC (Acinetobacter baumannii [33]): 32 µg/mL (≈ 54.6 µM); MIC (Acinetobacter baumannii [34]): 8 µg/mL (≈ 13.7 µM); MIC (Acinetobacter baumannii [35]): 3 µg/mL (≈ 5.12 µM); MIC (Acinetobacter baumannii [36]): 32 µg/mL (≈ 54.6 µM); MIC (Acinetobacter baumannii [37]): 24 µg/mL (≈ 41 µM); MIC (Acinetobacter baumannii [38]): 32 µg/mL (≈ 54.6 µM); MIC (Acinetobacter baumannii [39]): 3 µg/mL (≈ 5.12 µM); MIC (Acinetobacter baumannii [40]): 4 µg/mL (≈ 6.83 µM)
2 | CN(C)c1cc(NC(=O)CNC(C)(C)C)c(O)c2c1C[C@H]1C[C@H]3[C@H](N(C)C)C(O)=C(C(N)=O)C(=O)[C@@]3(O)C(O)=C1C2=O [TIGECYCLINE] | 0.75 (≈ 1.28 µM) | 2 (≈ 3.41 µM) | 0.25 (≈ 0.427 µM) | 0.5 (≈ 0.854 µM) | 0.25 (≈ 0.427 µM) | 3 (≈ 5.12 µM) | 2 (≈ 3.41 µM) | 0.5 (≈ 0.854 µM) | 0.09 (≈ 0.154 µM) | 1.5 (≈ 2.56 µM) | 0.75 (≈ 1.28 µM) | 0.75 (≈ 1.28 µM) | 0.75 (≈ 1.28 µM) | 0.5 (≈ 0.854 µM) | 0.5 (≈ 0.854 µM) | 2 (≈ 3.41 µM) | 1 (≈ 1.71 µM) | 0.19 (≈ 0.324 µM) | 1.5 (≈ 2.56 µM) | 1 (≈ 1.71 µM) | MIC (Acinetobacter baumannii [21]): 0.25 µg/mL (≈ 0.427 µM); MIC (Acinetobacter baumannii [22]): 3 µg/mL (≈ 5.12 µM); MIC (Acinetobacter baumannii [23]): 1 µg/mL (≈ 1.71 µM); MIC (Acinetobacter baumannii [24]): 0.19 µg/mL (≈ 0.324 µM); MIC (Acinetobacter baumannii [25]): 0.25 µg/mL (≈ 0.427 µM); MIC (Acinetobacter baumannii [26]): 0.5 µg/mL (≈ 0.854 µM); MIC (Acinetobacter baumannii [27]): 0.19 µg/mL (≈ 0.324 µM); MIC (Acinetobacter baumannii [28]): 0.5 µg/mL (≈ 0.854 µM); MIC (Acinetobacter baumannii [29]): 1 µg/mL (≈ 1.71 µM); MIC (Acinetobacter baumannii [30]): 1 µg/mL (≈ 1.71 µM); MIC (Acinetobacter baumannii [31]): 1 µg/mL (≈ 1.71 µM); MIC (Acinetobacter baumannii [32]): 1 µg/mL (≈ 1.71 µM); MIC (Acinetobacter baumannii [33]): 1 µg/mL (≈ 1.71 µM); MIC (Acinetobacter baumannii [34]): 0.5 µg/mL (≈ 0.854 µM); MIC (Acinetobacter baumannii [35]): 1 µg/mL (≈ 1.71 µM); MIC (Acinetobacter baumannii [36]): 0.75 µg/mL (≈ 1.28 µM); MIC (Acinetobacter baumannii [37]): 1 µg/mL (≈ 1.71 µM); MIC (Acinetobacter baumannii [38]): 1 µg/mL (≈ 1.71 µM); MIC (Acinetobacter baumannii [39]): 0.5 µg/mL (≈ 0.854 µM); MIC (Acinetobacter baumannii [40]): 0.5 µg/mL (≈ 0.854 µM)
